Series [1] is described as follows: Pharmacokinetic study of intravenous injection in rats. Particulars: SD, rat, plasma, 1 mg/kg. The source says: Through the in vivo drug metabolism test in rats, values such as Cmax, t1/2, AUC, MRT and B/P ratio of the compound in vivo were used as indicators to evaluate the metabolism of the compound in rats.
1. Pharmacokinetic Study of Intravenous Injection of Dezocine and Analogues Thereof in Rats
Mixing the test compound with an appropriate amount of physiological saline solution of 20% polyethylene glycol 400, followed by vortex and sonicate, and adjusting the pH to 4-5 with hydrochloric acid to obtain 5 mg/mL approximately clear solution, filtering the solution by microporous filtering film to be used. Selecting 6 to 9 weeks old SD rats (Shanghai Sleek Laboratory Animal Co., Ltd.) and intravenously injecting the test compound solution at a dose of 1 mg/kg. Collecting whole blood in certain time to prepare and obtain plasma. Analyzing drug concentrations by LC-MS/MS method and calculating pharmacokinetic parameters using Phoenix WinNonlin software (Pharsight, USA).

The target of the next series is T1, κ opioid receptor (Homo sapiens, UniProt P41145).
T1 construct: expressed in transfected cells
The series is described as follows: FLIPR intracellular calcium signal test, HEK293-κ cells. It is filed as cell-based. Particulars: for EC50: EC50 (activation) test, read-out: Kapp receptor EC50; for IC50: IC50 (inhibition) test against EC80 of positive agonist, read-out: Kapp receptor IC50. As to the method:
(§1) Fluorescence imaging plate reader FLIPR was used to detect changes of intracellular calcium signals. EC50 and IC50 values of the compounds were used as indicators to evaluate the activation or inhibition of the compounds on μ, κ, and δ opioid receptors.
(§2) Cell lines: HEK293-μ, HEK293-κ and HEK293-δ, stable-transfected cell lines HEK293-μ, HEK293-κ and HEK293-δ; Cell culture media (DMEM, Invitrogen #11965118, 10% fetal bovine serum Invitrogen #10099141, Geneticin Selective Antibiotic (G418) 300 μg/mL, Invitrogen #10131027, Blasticidin-S HCL 2 ug/mL Invitrogen #A1113902)
(§3) 1. Cell Seeding (HEK293-μ, HEK293-κ and HEK293-δ Cells)
(§4) 1) Preheating medium, pancreatic enzyme, and DPBS in a 37° C. water bath. Aspirating the culture medium from the cell culture flask and washing it with 10 mL DPBS;
(§5) 2) Adding the preheated pancreatic enzyme solution to the cell culture flask, rotating the flask slightly to make the pancreatic enzymes evenly cover the cell surface of the flask, and then putting it into a 37° C., 5% CO2 incubator to digest for 1-2 minutes;
(§6) 3) Suspending the cells with 10-15 mL culture medium in each T150 cm^2 cell culture flask, centrifugating at 800 rpm for 5 minutes, and resuspending the cells with 10 mL culture medium, aspirating 1 mL cell resuspension to be counted with Vi-cell;
(§7) 4) Diluting HEK293-μ, HEK293-κ and HEK293-δ cells to 5×10^5/mL with culture medium, use multichannel pipette to add diluted cells into 384 plate (Greiner #781946) (50 μL/well, 25000 cells/well for HEK293-μ, HEK293-κ and HEK293-δ cells). Placing the cell plate in a 37° C., 5% CO2 incubator overnight.
(§8) 2. Adding Compound Samples:
(§9) 1) Diluting the compound to 20 mM with DMSO, 3 fold diluted, 8 gradients, double reduplicative wells, and adding it to the compound plate using an Echo ultrasonic liquid handler device (Echo liquid handler).
(§10) 1) Washing off the cell culture medium in 384 plate with vacuum pump, adding 20 μL Fluo-4 Direct fluorescent dye, then incubating in a 37° C., 5% CO2 incubator for 50 minutes, followed by equilibrating at room temperature for 10 minutes.
(§11) 2) EC50 test: Adding 20 uL HBSS buffer (containing 20 mM HEPES) to the compound plate, mixing well and centrifugating. Placing the cell plate and compound plate into FLIPR and reading the fluorescence value.
(§12) Calculating the EC80 value with the EC50 value of the positive agonist, preparing 4× EC80 solution, adding it to the 384 compound plate by multichannel pipette, and mixing well and centrifugating.
(§13) 4) IC50 test: In FLIPR, successively placing 4× EC80 plate, cell plate, FLIPR tip, running the program and reading the fluorescence value.
(§14) 4. Data Analyzing: Using Prism 5.0 to Analyze the Data and Calculate the EC50 and IC50 Values of the Compounds.

In another series the target is T2, μ opioid receptor (Homo sapiens, UniProt P35372).
T2 construct: expressed in transfected cells
The experiment in a line: FLIPR intracellular calcium signal test, HEK293-μ cells. The class given is cell-based. The settings on record: for EC50: EC50 (activation) test, read-out: Mu receptor EC50; for IC50: IC50 (inhibition) test against EC80 of positive agonist, read-out: Mu receptor IC50. Here is the method: as §1, §2, §3, §4, §5, §6, §7, §8, §9, §10, §11, §12, §13, §14

Series [2] in a line: Brain distribution study of intravenous injection in rats. Particulars: rat, 1 mg/kg, brain tissue to plasma concentration ratio; for B/P ratio (0.25 h): 0.25 h after dosing; for B/P ratio (2 h): 2 h after dosing. Here is the method: 2. Brain Distribution Study of Intravenous Injection of Dezocine and Analogues Thereof in Rats
Intravenously injecting the test compound solution in the same manner as example 1 at a dose of 1 mg/kg. Executing animals with carbon dioxide 15 minutes and 2 hours after dosing, collecting whole blood and brain tissue sample, centrifugating the whole blood to obtain plasma, and homogenizing the brain tissue with triple volumes of deionized water. Analyzing drug concentration of the plasma and brain homogenate samples by LC-MS/MS method, and calculating the concentration ratio of brain tissue to plasma (B/P ratio).

The target of the next series is T3, δ opioid receptor (Homo sapiens, UniProt P41143).
T3 construct: expressed in transfected cells
The experiment in a line: FLIPR intracellular calcium signal test, HEK293-δ cells. The class given is cell-based. The settings on record: for EC50: EC50 (activation) test, read-out: Delt receptor EC50; for IC50: IC50 (inhibition) test against EC80 of positive agonist, read-out: Delt receptor IC50. Here is the method:
as §1, §2, §3, §4, §5, §6, §7, §8, §9, §10, §11, §12, §13, §14

The nature of series [3]: Pharmacokinetics of intramuscular injection of Compound 21 and prodrug thereof in rats. Particulars: SD, in vivo, im, rat. An excerpt: 3. Pharmacokinetics of Intramuscular Injection of Compound 21 and Prodrug Thereof in Rats
Mixing the test compound with an appropriate amount of sesame oil, followed by vortex and sonicate, to prepare and obtain 25 μmol/mL homogeneous suspension. […] Collecting whole blood in certain time, adding precipitant (acetonitrile, methanol and analytical internal standard) and centrifugating.

Where a name gives a salt, the structure may show the parent alone. Read-outs that look alike come from different tables or passages of the source.

T1 sequence (P41145 whole entry): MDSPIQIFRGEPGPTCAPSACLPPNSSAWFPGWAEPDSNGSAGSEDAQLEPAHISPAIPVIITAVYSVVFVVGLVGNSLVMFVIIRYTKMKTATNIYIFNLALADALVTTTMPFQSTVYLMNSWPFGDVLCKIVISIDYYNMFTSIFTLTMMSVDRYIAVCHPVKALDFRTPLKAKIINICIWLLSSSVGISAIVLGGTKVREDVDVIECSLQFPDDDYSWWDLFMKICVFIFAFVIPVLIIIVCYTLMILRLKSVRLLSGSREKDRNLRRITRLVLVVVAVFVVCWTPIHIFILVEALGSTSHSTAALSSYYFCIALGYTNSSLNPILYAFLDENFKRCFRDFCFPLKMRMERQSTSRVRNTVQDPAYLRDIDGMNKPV
T3 sequence (P41143 whole entry): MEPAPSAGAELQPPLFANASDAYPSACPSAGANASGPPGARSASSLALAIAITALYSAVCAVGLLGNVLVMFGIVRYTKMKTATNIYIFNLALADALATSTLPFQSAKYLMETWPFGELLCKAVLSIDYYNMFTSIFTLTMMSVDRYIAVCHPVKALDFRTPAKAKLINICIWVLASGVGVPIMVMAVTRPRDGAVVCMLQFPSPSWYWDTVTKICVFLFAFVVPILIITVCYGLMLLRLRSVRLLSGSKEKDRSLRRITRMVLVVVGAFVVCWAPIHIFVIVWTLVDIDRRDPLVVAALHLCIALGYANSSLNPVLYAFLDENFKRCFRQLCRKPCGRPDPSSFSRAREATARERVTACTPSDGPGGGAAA
T2 sequence (P35372 whole entry): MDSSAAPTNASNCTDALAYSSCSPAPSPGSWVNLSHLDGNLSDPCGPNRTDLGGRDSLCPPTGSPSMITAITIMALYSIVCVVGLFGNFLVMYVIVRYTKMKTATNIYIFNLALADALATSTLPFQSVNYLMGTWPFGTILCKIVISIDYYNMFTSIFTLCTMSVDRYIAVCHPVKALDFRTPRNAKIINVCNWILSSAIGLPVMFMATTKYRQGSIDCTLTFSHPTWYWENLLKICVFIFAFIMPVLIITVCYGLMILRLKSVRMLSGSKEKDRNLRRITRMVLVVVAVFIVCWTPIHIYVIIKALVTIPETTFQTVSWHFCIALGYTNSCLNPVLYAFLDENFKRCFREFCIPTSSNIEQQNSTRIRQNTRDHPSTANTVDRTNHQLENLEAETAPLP

As to `C[C@@]12CCCCC[C@@H](Cc3ccc(O)cc31)[C@@H]2N` (relative stereo) [Dezocine, (−)-[5R-(5α,11α,13S*)]-13-amino-5,6,7,8,9,10,11,12-octahydro-5-methyl-5,11-methan obenzocyclodecen-3-ol], in series [1], the AUC(0-t) turned out to be 485 nM·h, the C0 came out at 0.684 µM, the MRT last was 1.22 h and the volume of distribution (Vd) was found to be 12.2 L/kg. In series [1], this compound had a clearance of 8.34 L/h/kg and a half-life of 1.26 h.

In series [1], `C[C@@]12CCCCC[C@@H](Cc3c(F)cc(O)cc31)[C@@H]2N` [Compound 21] gave an AUC(0-t) of 387 nM·h, a C0 of 0.493 µM, an MRT last of 1.35 h and a distribution volume (Vd) of 16.2 L/kg. In series [1], this compound gave a clearance of 9.3 L/h/kg and a half-life of 1.42 h. Moreover, on κ opioid receptor, the half-maximal effective concentration (EC50) is greater than 100 µM and the IC50 lay in the range of 1 to 10 µM. In addition, on μ opioid receptor, the EC50 was no more than 0.1 µM and the IC50 is no more than 0.1 µM. Further, in series [2], the “B/P ratio (0.25 h)” value is reported as 13.3 and the “B/P ratio (2 h)” value was determined as 19.8. Further, at δ opioid receptor, the EC50 was greater than 100 µM and the IC50 lay within 1 to 10 µM. In addition, the half-life in series [3] (40 umol/kg, Compound 21 itself dosed at 40 μmol/kg, sesame oil suspension) was 4.2 h. For the same compound, the AUC(0-t) in series [3] (40 umol/kg, Compound 21 itself dosed at 40 μmol/kg, sesame oil suspension, read-out: AUC0-last) turned out to be 3990 nM·h. Moreover, in series [3] (40 umol/kg, Compound 21 itself dosed at 40 μmol/kg, sesame oil suspension, read-out: Cmax), the Cmax worked out at 1.75 µM. Further, in series [3] (40 umol/kg, Compound 21 itself dosed at 40 μmol/kg, sesame oil suspension, read-out: MRT0-last), the MRT last is 2.82 h. Moreover, in series [3] (40 umol/kg, Compound 21 itself dosed at 40 μmol/kg, sesame oil suspension, read-out: Tmax), the Tmax was determined as 0.5 h.

In series [1], `C[C@]12CCCCC[C@@H](Cc3c(Cl)cc(O)cc31)[C@@H]2N` [Compound 23] gave an AUC(0-t) of 341 nM·h, a C0 of 0.362 µM, an MRT last of 1.65 h and a distribution volume (Vd) of 20.6 L/kg. In series [1], this compound showed a clearance of 9.9 L/h/kg and a half-life of 1.6 h. On κ opioid receptor, the 50% effective concentration (EC50) was greater than 100 µM and the IC50 is 1 to 10 µM. Further, at μ opioid receptor, the EC50 is no more than 0.1 µM and the IC50 was no more than 0.1 µM. In series [2], the “B/P ratio (0.25 h)” value was found to be 16.7 and the “B/P ratio (2 h)” value turned out to be 27.9. On δ opioid receptor, the EC50 is greater than 100 µM and the IC50 was greater than 100 µM.

As for `CC(C)CC12CCCCC(Cc3c(F)cc(O)cc31)C2N` (stereo not shown) [Compound 31], the EC50 was greater than 100 µM at κ opioid receptor, 10 to 100 µM at μ opioid receptor and greater than 100 µM on δ opioid receptor. In addition, the results for the IC50 at κ opioid receptor, at μ opioid receptor and at δ opioid receptor were 10 to 100 µM, 10 to 100 µM and greater than 100 µM, respectively.

With `C[C@@]12CCCCC[C@@H](Cc3c(F)cc(OC(=O)CCCCC(=O)Oc4cc(F)c5c(c4)[C@@]4(C)CCCCC[C@@H](C5)[C@@H]4N)cc31)[C@@H]2N` [Compound 34], the AUC(0-t) in series [3] (20 umol/kg, carboxylic diester prodrug 20 μmol/kg, analyte: prodrug itself, read-out: AUC0-last of the prodrug) worked out at 2.95 nM·h. The Cmax in series [3] (20 umol/kg, carboxylic diester prodrug 20 μmol/kg, analyte: prodrug itself, read-out: Cmax of the prodrug) was determined as 0.00391 µM. Further, in series [3] (20 umol/kg, carboxylic diester prodrug 20 μmol/kg, analyte: prodrug itself, read-out: MRT0-last of the prodrug), the MRT last amounted to 0.539 h. Also, in series [3] (20 umol/kg, carboxylic diester prodrug 20 μmol/kg, analyte: prodrug itself, read-out: Tmax of the prodrug), the Tmax was 0.25 h.

As for `CC12CCCCCC(Cc3cc(Cl)c(O)cc31)C2N` (stereo not shown) [Hydrochloride of Compound 16], the half-maximal effective concentration (EC50) at κ opioid receptor is greater than 100 µM; on μ opioid receptor, 10 to 100 µM; at δ opioid receptor, greater than 100 µM. For the same compound, the IC50 is 1 to 10 µM at κ opioid receptor, 1 to 10 µM at μ opioid receptor and greater than 100 µM on δ opioid receptor.

For the compound `CC12CCCCCC(Cc3cc(F)c(O)cc31)C2N` (stereo not shown) [Hydrochloride of Compound 17], the EC50 at κ opioid receptor was greater than 100 µM; at μ opioid receptor it was 1 to 10 µM; on δ opioid receptor, greater than 100 µM. The IC50 is 10 to 100 µM at κ opioid receptor, 1 to 10 µM at μ opioid receptor and greater than 100 µM on δ opioid receptor.

Values taken from patent publication US10414718B2, “Dezocine analogue” (priority 2016, dated 2019).
